tested on: T47D; test: Effective concentration against alkaline phosphatase activity in human T47D breast carcinoma cell line; format: functional, cell-based

EC50 | SMILES
21.1 nM | CN1C(=S)OC(C)(C)c2cc(-c3ccc(C#N)[nH]3)ccc21
1.1 nM | Cn1c(C#N)ccc1-c1ccc2c(c1)C(C)(C)OC(=O)N2
0.1 nM | CCC1(CC)OC(S)=Nc2ccc(-c3ccc(C#N)n3C)cc21
1.2 nM | CC1(C)OC(S)=Nc2ccc(-c3coc(C#N)c3)cc21
0.15 nM | Cn1c(C#N)ccc1-c1ccc2c(c1)C(C)(C)OC(=S)N2 [TANAPROGET]
0.5 nM | Cn1c(C#N)ccc1-c1ccc2c(c1)C1(CCC1)OC(S)=N2
23 nM | CC1Nc2ccc(-c3ccc(F)c(C#N)c3)cc2C(C)(C)O1 (configuration not stated)
0.15 nM | CC1(C)OC(=S)Nc2ccc(-c3ccc(C#N)[nH]3)cc21
0.35 nM | Cn1c(C#N)ccc1-c1ccc2c(c1)C(C)(c1cccs1)OC(S)=N2 (configuration not stated)
0.1 nM | CCC1(C)OC(S)=Nc2ccc(-c3ccc(C#N)n3C)cc21 (configuration not stated)
0.4 nM | CC1(C)OC(S)=Nc2ccc(-c3csc(C#N)c3)cc21

biological target: T1, Progesterone receptor (Homo sapiens, UniProt P06401); test: Inhibition of human progesterone receptor
T1 sequence (P06401 whole entry): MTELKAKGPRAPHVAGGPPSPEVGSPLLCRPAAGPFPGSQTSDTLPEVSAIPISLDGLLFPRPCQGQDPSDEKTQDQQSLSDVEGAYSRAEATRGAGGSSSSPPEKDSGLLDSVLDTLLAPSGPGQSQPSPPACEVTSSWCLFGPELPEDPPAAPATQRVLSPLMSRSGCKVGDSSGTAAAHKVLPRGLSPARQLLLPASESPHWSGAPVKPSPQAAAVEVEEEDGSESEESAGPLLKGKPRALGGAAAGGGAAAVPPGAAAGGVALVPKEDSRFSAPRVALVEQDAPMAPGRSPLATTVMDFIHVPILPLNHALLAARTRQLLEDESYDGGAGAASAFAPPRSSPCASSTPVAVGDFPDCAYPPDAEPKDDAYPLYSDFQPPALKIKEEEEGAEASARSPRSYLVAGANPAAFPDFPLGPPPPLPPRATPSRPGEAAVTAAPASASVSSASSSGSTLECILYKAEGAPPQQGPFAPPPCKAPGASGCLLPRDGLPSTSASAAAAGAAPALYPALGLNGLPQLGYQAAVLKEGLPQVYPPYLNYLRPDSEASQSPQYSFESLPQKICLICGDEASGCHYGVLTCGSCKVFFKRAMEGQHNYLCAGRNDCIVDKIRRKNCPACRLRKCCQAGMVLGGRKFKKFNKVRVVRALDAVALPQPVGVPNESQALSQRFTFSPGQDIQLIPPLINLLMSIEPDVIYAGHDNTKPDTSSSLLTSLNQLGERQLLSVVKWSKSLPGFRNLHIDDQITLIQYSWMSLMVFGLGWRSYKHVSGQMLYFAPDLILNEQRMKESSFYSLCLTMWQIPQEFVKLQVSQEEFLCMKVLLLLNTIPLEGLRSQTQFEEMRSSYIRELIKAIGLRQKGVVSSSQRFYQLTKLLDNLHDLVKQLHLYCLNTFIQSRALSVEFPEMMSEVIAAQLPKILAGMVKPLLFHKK

IC50 | SMILES
73 nM | CC(C)n1c(=O)[nH]c2ccc(-c3cccc(Cl)c3)cc21
